Measurements published in patent US20250282794A1 (CURADEV PHARMA LTD, priority 2022, published 2025).

target: recombinant full length HPK-1 enzyme (Homo sapiens (Human), UniProt Q92918); assay: HPK-1 biochemical enzyme assay (ADP-Glo kinase inhibition); details: recombinant full length HPK-1 6.8 nM, 10 μM ATP, 12.5 μM MBP, 30 mins at 25° C.
Method in brief: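 ADP-Glo readout of ADP formed after a 30 min, 25° C. reaction of 6.8 nM full-length HPK-1 with swine myelin basic protein (12.5 μM) and ATP (10 μM) in Tris pH 7.4 buffer with MgCl2, DTT and BSA. Ten compound concentrations tested; percent inhibition set against vehicle (0%) and no-enzyme (100%) controls gave IC50.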

Chain of recombinant full length HPK-1 enzyme (Q92918 whole entry, species assumed): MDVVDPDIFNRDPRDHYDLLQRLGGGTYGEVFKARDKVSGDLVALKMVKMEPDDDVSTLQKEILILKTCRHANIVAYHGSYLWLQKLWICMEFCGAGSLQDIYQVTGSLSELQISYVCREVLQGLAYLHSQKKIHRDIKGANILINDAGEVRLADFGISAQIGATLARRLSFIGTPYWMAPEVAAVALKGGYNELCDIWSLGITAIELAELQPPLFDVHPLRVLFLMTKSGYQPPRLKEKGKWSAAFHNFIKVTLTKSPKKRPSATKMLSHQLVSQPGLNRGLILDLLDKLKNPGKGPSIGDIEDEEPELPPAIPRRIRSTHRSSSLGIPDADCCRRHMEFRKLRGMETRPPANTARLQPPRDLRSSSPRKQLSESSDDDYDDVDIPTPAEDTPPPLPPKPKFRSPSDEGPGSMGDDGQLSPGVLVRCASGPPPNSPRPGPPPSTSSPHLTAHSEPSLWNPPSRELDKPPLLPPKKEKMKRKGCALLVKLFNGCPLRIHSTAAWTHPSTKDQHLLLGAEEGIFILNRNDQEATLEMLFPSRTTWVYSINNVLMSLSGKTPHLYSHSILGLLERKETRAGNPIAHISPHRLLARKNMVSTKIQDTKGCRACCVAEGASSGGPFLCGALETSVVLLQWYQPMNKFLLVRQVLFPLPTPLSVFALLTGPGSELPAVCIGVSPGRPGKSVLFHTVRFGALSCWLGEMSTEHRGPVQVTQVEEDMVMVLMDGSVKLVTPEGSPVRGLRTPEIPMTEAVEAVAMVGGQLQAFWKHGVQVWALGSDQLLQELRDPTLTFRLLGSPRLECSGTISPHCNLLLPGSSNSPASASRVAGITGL

Compound	IC50
COCCN1CCC(c2ccc(NC(=O)c3c(Nc4cnc5c(c4C)NCCO5)cc[nH]c3=O)cc2)CC1 [Example 202, N-(4-(1-(2-methoxyethyl)piperidin-4-yl)phenyl)-4-((8-methyl-2,3-dihydro-1H-pyrido[2,3-b][1,4]oxazin-7-yl)amino)-2-oxo-1,2-dihydropyridine-3-carboxamide]	10 to 100 nM
COc1cc(NC(=O)c2c(Nc3cnc4c(c3C)NCC(C)O4)cc[nH]c2=O)ccc1N1CCN(C)CC1 (centres unmarked) [Example 203, 4-((3,8-dimethyl-2,3-dihydro-1H-pyrido[2,3-b][1,4]oxazin-7-yl)amino)-N-(3-methoxy-4-(4-methylpiperazin-1-yl)phenyl)-2-oxo-1,2-dihydropyridine-3-carboxamide]	10 to 100 nM
Cc1c(Nc2cc[nH]c(=O)c2C(=O)Nc2ccc(N3CCN(C)CC3)c(CO)c2)cnc2c1NCC(C)O2 (centres unmarked) [Example 204, 4-((3,8-dimethyl-2,3-dihydro-1H-pyrido[2,3-b][1,4]oxazin-7-yl)amino)-N-(3-(hydroxymethyl)-4-(4-methylpiperazin-1-yl)phenyl)-2-oxo-1,2-dihydropyridine-3-carboxamide]	10 to 100 nM
Cc1c(Nc2cc[nH]c(=O)c2C(=O)Nc2ccc(N3CCOCC3)cc2)cnc2c1NCCO2 [Example 205, 4-((8-methyl-2,3-dihydro-1H-pyrido[2,3-b][1,4]oxazin-7-yl)amino)-N-(4-morpholinophenyl)-2-oxo-1,2-dihydropyridine-3-carboxamide]	10 to 100 nM
Cc1c(Nc2cc[nH]c(=O)c2C(=O)Nc2ccc(CN3CCN(C)CC3)cc2)cnc2c1NCCO2 [Example 206, 4-((8-methyl-2,3-dihydro-1H-pyrido[2,3-b][1,4]oxazin-7-yl)amino)-N-(4-((4-methylpiperazin-1-yl)methyl)phenyl)-2-oxo-1,2-dihydropyridine-3-carboxamide]	10 to 100 nM
Cc1c(Nc2cc[nH]c(=O)c2C(=O)Nc2ccc(N3CCN(C)CC3)cc2F)cnc2c1NCCO2 [Example 207, N-(2-fluoro-4-(4-methylpiperazin-1-yl)phenyl)-4-((8-methyl-2,3-dihydro-1H-pyrido[2,3-b][1,4]oxazin-7-yl)amino)-2-oxo-1,2-dihydropyridine-3-carboxamide]	10 to 100 nM
Cc1c(Nc2cc[nH]c(=O)c2C(=O)Nc2ccc(N3CCN(C)CC3)c(C(=O)N(C)C)c2)cnc2c1NCCO2 [Example 208, N-(3-(dimethylcarbamoyl)-4-(4-methylpiperazin-1-yl)phenyl)-4-((8-methyl-2,3-dihydro-1H-pyrido[2,3-b][1,4]oxazin-7-yl)amino)-2-oxo-1,2-dihydropyridine-3-carboxamide]	100 to 1000 nM
Cc1c(Nc2cc[nH]c(=O)c2C(=O)Nc2ccc(NC3CCN(C)CC3)cc2)cnc2c1NCCO2 [Example 209, 4-((8-methyl-2,3-dihydro-1H-pyrido[2,3-b][1,4]oxazin-7-yl)amino)-N-(4-((1-methylpiperidin-4-yl)amino)phenyl)-2-oxo-1,2-dihydropyridine-3-carboxamide]	10 to 100 nM
Cc1c(Nc2cc[nH]c(=O)c2C(=O)Nc2ccc(S(N)(=O)=O)cc2)cnc2c1NCCO2 [Example 210, 4-((8-methyl-2,3-dihydro-1H-pyrido[2,3-b][1,4]oxazin-7-yl)amino)-2-oxo-N-(4-sulfamoylphenyl)-1,2-dihydropyridine-3-carboxamide]	10 to 100 nM
Cc1c(Nc2cc[nH]c(=O)c2C(=O)Nc2ccc(N3CCN(C)CC3)c(-n3cnnc3)c2)cnc2c1NCCO2 [Example 211, 4-((8-methyl-2,3-dihydro-1H-pyrido[2,3-b][1,4]oxazin-7-yl)amino)-N-(4-(4-methylpiperazin-1-yl)-3-(4H-1,2,4-triazol-4-yl)phenyl)-2-oxo-1,2-dihydropyridine-3-carboxamide]	10 to 100 nM
Cc1c(Nc2cc[nH]c(=O)c2C(=O)Nc2ccc(N3CCCC(C(C)(C)O)C3)cc2)cnc2c1NCCO2 (centres unmarked) [Example 212, N-(4-(3-(2-hydroxypropan-2-yl)piperidin-1-yl)phenyl)-4-((8-methyl-2,3-dihydro-1H-pyrido[2,3-b][1,4]oxazin-7-yl)amino)-2-oxo-1,2-dihydropyridine-3-carboxamide]	≤ 10 nM
Cc1c(Nc2cc[nH]c(=O)c2C(=O)Nc2ccc(CN3CCN(C)CC3)c(C(F)(F)F)c2)cnc2c1NCCO2 [Example 213, 4-((8-methyl-2,3-dihydro-1H-pyrido[2,3-b][1,4]oxazin-7-yl)amino)-N-(4-((4-methylpiperazin-1-yl)methyl)-3-(trifluoromethyl)phenyl)-2-oxo-1,2-dihydropyridine-3-carboxamide]	10 to 100 nM
Cc1c(Nc2cc[nH]c(=O)c2C(=O)Nc2ccc(C3CCCN(C)C3)cc2)cnc2c1NCCO2 (centres unmarked) [Example 214, 4-((8-methyl-2,3-dihydro-1H-pyrido[2,3-b][1,4]oxazin-7-yl)amino)-N-(4-(1-methylpiperidin-3-yl)phenyl)-2-oxo-1,2-dihydropyridine-3-carboxamide]	≤ 10 nM
Cc1c(Nc2cc[nH]c(=O)c2C(=O)Nc2ccc(N3CCN(C)CC3)c(C(=O)O)c2)cnc2c1NCCO2 [Example 215, 5-(4-((8-methyl-2,3-dihydro-1H-pyrido[2,3-b][1,4]oxazin-7-yl)amino)-2-oxo-1,2-dihydropyridine-3-carboxamido)-2-(4-methylpiperazin-1-yl)benzoic acid]	100 to 1000 nM
Cc1c(Nc2cc[nH]c(=O)c2C(=O)Nc2ccc(N3CCC(C(=O)O)CC3)cc2)cnc2c1NCCO2 [Example 216, 1-(4-(4-((8-methyl-2,3-dihydro-1H-pyrido[2,3-b][1,4]oxazin-7-yl)amino)-2-oxo-1,2-dihydropyridine-3-carboxamido)phenyl)piperidine-4-carboxylic acid]	10 to 100 nM
Cc1cc(NS(C)(=O)=O)ccc1NC(=O)c1c(Nc2cnc3c(c2C)NCCO3)cc[nH]c1=O [Example 217, 4-((8-methyl-2,3-dihydro-1H-pyrido[2,3-b][1,4]oxazin-7-yl)amino)-N-(2-methyl-4-(methylsulfonamido)phenyl)-2-oxo-1,2-dihydropyridine-3-carboxamide]	100 to 1000 nM
CCN1C(=O)C(C)(C)c2cc(NC(=O)c3c(Nc4cnc5c(c4C)NCCO5)cc[nH]c3=O)ccc21 [Example 218, N-(1-ethyl-3,3-dimethyl-2-oxoindolin-5-yl)-4-((8-methyl-2,3-dihydro-1H-pyrido[2,3-b][1,4]oxazin-7-yl)amino)-2-oxo-1,2-dihydropyridine-3-carboxamide]	100 to 1000 nM
Cc1c(Nc2cc[nH]c(=O)c2C(=O)Nc2ccc(N3CCN(C)[C@@H](C)C3)cc2)cnc2c1NCCO2 [Example 219, (S)-N-(4-(3,4-dimethylpiperazin-1-yl)phenyl)-4-((8-methyl-2,3-dihydro-1H-pyrido[2,3-b][1,4]oxazin-7-yl)amino)-2-oxo-1,2-dihydropyridine-3-carboxamide]	≤ 10 nM
Cc1c(Nc2cc[nH]c(=O)c2C(=O)Nc2ccc(N3CCN(C)[C@H](C)C3)cc2)cnc2c1NCCO2 [Example 220, (R)-N-(4-(3,4-dimethylpiperazin-1-yl)phenyl)-4-((8-methyl-2,3-dihydro-1H-pyrido[2,3-b][1,4]oxazin-7-yl)amino)-2-oxo-1,2-dihydropyridine-3-carboxamide]	≤ 10 nM
Cc1c(Nc2cc[nH]c(=O)c2C(=O)Nc2ccc3c(c2)NC(=O)CO3)cnc2c1NCCO2 [Example 221, 4-((8-methyl-2,3-dihydro-1H-pyrido[2,3-b][1,4]oxazin-7-yl)amino)-2-oxo-N-(3-oxo-3,4-dihydro-2H-benzo[b][1,4]oxazin-6-yl)-1,2-dihydropyridine-3-carboxamide]	100 to 1000 nM
